According to patent US20070172509A1, “Drug Delivery System for Retarding Release of Water Soluble Drugs” (Conor Medsystems, Inc., priority 2006, published 2007):
≈ marks a conversion by molar mass, not a printed value.

What was measured:
[1] = Film morphology of agent in PLGA 85/15 film cast from anisole; format: physicochemical; design: key: A—Amorphous; D—Dispersion; C—Crystalline
[2] = cited from earlier work
[3] = 5% agent in PLGA 85/15 film cast from anisole
[4] = 10% agent in PLGA 85/15 film cast from anisole
[5] = 25% agent in PLGA 85/15 film cast from anisole
[6] = 50% agent in PLGA 85/15 film cast from anisole
[7] = 75% agent in PLGA 85/15 film cast from anisole
[8] = 90% agent in PLGA 85/15 film cast from anisole

Row | SMILES | Film Morphology [1, 3] | Film Morphology [1, 4] | Film Morphology [1, 5] | Film Morphology [1, 6] | Film Morphology [1, 7] | Film Morphology [1, 8] | water solubility [2] [µg/mL]
1 | Cc1cc(C(C)(C)C)c(O)c(C(C)(C)C)c1 [BHT, butylated hydroxy toluene] | A | A | A | D | Mixed | C | 
2 | O=C(OCc1ccccc1)c1ccccc1 [Benzyl Benzoate] | A | A |  |  |  |  | 
3 | CCCCOC(=O)c1ccc(O)cc1 [Butyl 4-Hydroxybenzoate] | A | A | A | C | C | C | 
4 | CC[C@@H]1/C=C(\C)C[C@H](C)C[C@H](OC)[C@H]2O[C@@](O)(C(=O)C(=O)N3CCCC[C@H]3C(=O)O[C@H](/C(C)=C/[C@@H]3CC[C@H](Cl)[C@H](OC)C3)[C@H](C)[C@@H](O)CC1=O)[C@H](C)C[C@@H]2OC [Pimecrolimus, reference compound] |  | A | Mixed | C |  |  | 
5 | CCCOC(=O)c1ccc(O)cc1 [Propyl 4-hydroxybenzoate] | A | A | Mixed | C | C | C | 
6 | Nc1nc(Cl)nc2c1ncn2[C@H]1C[C@H](O)[C@@H](CO)O1 [cladribine] |  |  |  |  |  |  | 200 (≈ 700 µM)
